The values that follow come from patent publication US8946187B2, “Materials and methods related to microRNA-21, mismatch repair, and colorectal cancer” (The Ohio State University, priority 2010, dated 2015).

The assay relates to Lovo tumor xenografts. The experiment in a line: Colorectal cancer xenograft model, 5-FU treatment. It is filed as in vivo, nude mice. The following applies: 5-FU 50 mg/kg/day i.p., 5 days per week for 2 weeks; Lovo(MSH2+) vs Lovo(MSH2−). The text has this:
Lovo-MSH2 positive and Lovo-MSH2 negative cells were stably infected with the pCDH-CMV-MCS-EF1-miRNA expression plasmid containing the full-length miR-21 and the GFP gene under the control of two different promoters (System Biosciences, Mountain View, Calif.). An empty vector was used as control. Pre-miR-21 expression and control constructs were packaged with pPACKH1 Lentivector Packaging Plasmid mix (System Biosciences) in 293-TN packaging cell line. Viruses were concentrated using PEG-It™ Virus Precipitation Solution and titers analyzed using UltraRapid Lentiviral Titer Kit (System Biosciences). Infected cells were selected by FACS analysis (FACS Calibur, Becton Dickinson Immunocytometry Systems). Infection efficiency >90% was verified by fluorescent microscopy and further confirmed by real time PCR for miR-21 expression.
Animal studies were performed according to institutional guidelines. […] Tumor volume was measured at the beginning of treatment and then once a week. The estimated tumor volume (V) was calculated by the following formula: V=W2×L×0.5, where W represents the […] tumor diameter. The individual relative tumor volume (RTV) was calculated as follows RTV=Vx/V1 where Vx is the volume in cubic millimeters at a given time and V1 is the volume at the start of treatment. […]

`O=c1[nH]cc(F)c(=O)[nH]1` [5-FU, 5-fluorouracil]: the “efficacy of 5-FU treatment on tumor xenografts” value is reported as “more efficacious with Lovo(MSH2+) tumor xenografts compared to Lovo(MSH2−) tumor xenografts”.
